Each structure is given as a SMILES string.

`CC(C)=NOCc1nc2c(N)nc(C)c(C)c2n1CCCCNC(=O)C(C)C` showed a melting point of 180 to 181 °C. Then `CCOC(=O)C1(C)C(=O)Nc2cc3[nH]c(-c4cnccn4)nc3cc21` (configuration not stated), with 288 to 290 °C. With `Fc1cccc(F)c1-c1ncc(-c2ccc(-c3ccc(OC(F)(F)F)cc3)cc2)cn1` the figure was 215 to 216 °C; with `CCCON1C(C)(C)CC(NC(=O)C2=C(c3ccccc3)C(c3ccccc3)OC2=O)CC1(C)C` (configuration not stated), 79 to 85 °C; with `O=C(O)Cc1ccc(C2=CCCCC2)cc1`, 118 to 120 °C. For the molecule `Clc1nc(Cl)c2ncn(C3CCCCC3)c2n1`, the melting point was 116 to 121 °C.

Regarding `O=C(O)Cn1cccc(OCc2ccccc2)c1=O`, the melting point lay within 176 to 177 °C.

Consider `CN1C(=O)SC(S(=O)(=O)c2cccc3c(Br)cccc23)C1=O` (configuration not stated), for which the melting point lay in the range of 150 to 151 °C. Turning to `Cc1ccc(NC(=O)c2cccc(C(F)(F)F)c2)cc1-c1ccc2ncncc2c1`, the melting point is 155 to 156 °C. `CNC(=O)Oc1ccc(NC(=O)C(C)Oc2ccccc2)c(C)c1` (configuration not stated) yielded a melting point of 123 to 125 °C.

`CCN(CC)[C@@H]1C(=O)N(C)[C@H]1c1ccccc1` (relative stereo): the melting point is 70 to 71 °C. Then `CCCc1c(C2=NN=C(C)Cc3cc4[nH]c(=O)oc4cc32)sc2ccccc12`, with 307 to 308 °C; and `CC(c1ccc(Cl)cc1Cl)n1nc(C(=O)O)cc1-c1ccc(Cl)cc1` (configuration not stated), with 80 °C; and `CC(=O)NC1CSC(=S)N(c2cccc(F)c2)C1=O` (configuration not stated), with 176 to 177 °C. In turn, `Cc1c(C)c2c(c(C)c1NC(=O)OCC(Cl)(Cl)Cl)C(c1ccc(C(C)C)cc1)CO2` (configuration not stated) displayed a melting point of 137 to 140 °C.

The molecule `CC(=O)Nc1cccc(-c2ccc3nncn3n2)c1` returned a melting point of 248 to 250 °C. As to `CN1C(=O)C(=Cc2cc(O)c(O)c([N+](=O)[O-])c2)SC1=S`, the melting point was 274 to 276 °C. `O=C(O)c1ccccc1Oc1ccc2ccccc2c1` registered a melting point of 139 to 142 °C. Take `OC(c1ccc(Cl)cc1)c1cccnc1-n1ccnc1` (configuration not stated): the melting point lay in the range of 133 to 134 °C. Molecule `CC(COc1ccccc1)NCC(O)COc1cccc(O)c1` (configuration not stated) returned a melting point of 124 to 127 °C. As to `CN(C)CC(=O)N1c2ccccc2N(C)S(=O)(=O)c2ccc(C(F)(F)F)cc21`, the melting point lay in the range of 156 to 157 °C. `CCc1cccc(C)c1CNc1cc(C(=O)N2CCCC2)cc2c1nc(C)n2C` returned a melting point of 126 °C. `C[C@H](CO)Nc1nc(SCc2cccc(C(F)(F)F)c2F)nc2[nH]c(=O)cnc12` registered a melting point of 217 to 219 °C. Consider `CNC(=S)N1CCSC1c1ccccc1OCCN1CC=C(c2cccc(F)c2)CC1` (configuration not stated), for which the melting point was 147 to 148 °C. As to `O=c1cc(NCCN2CCN(c3cccc(Cl)c3)CC2)cn[nH]1`, the melting point fell in the range of 187 to 189 °C. The molecule `Fc1ccc(Oc2ncccc2COCc2ccccc2)cc1` had a melting point of 49 to 50 °C.

`CCCCOC(=O)c1ccc(C(F)(F)F)cc1Cl` gave a melting point of 90 °C. The molecule `N#CSc1nc(I)ncc1I` returned a melting point of 183 to 185 °C. Consider `O=C1NC(N2CCN(c3cnccn3)CC2)c2ccccc21` (configuration not stated), for which the melting point was in the range of 242 to 246 °C.

`ClCCc1c[nH]c(-c2ccc(OCc3ccccc3)cc2)n1` displayed a melting point of 163 to 165 °C. With `CNC(=S)C1(c2cccnc2)CCCS1=O` (configuration not stated), the melting point was found to be 204 °C.

`CCOC(=O)c1ccc(OCC2CCN(C(=O)OC(C)(C)C)CC2)c(OC)c1` came in with a melting point of 81 to 83 °C. For the molecule `CCCc1nn(C)c2c(=O)[nH]c(-c3cc(CCCN)ccc3OCC)nc12`, the melting point lay in the range of 115 to 117 °C. `Oc1ccc2ccc(OCc3ccccn3)cc2c1` gave a melting point of 190 to 193 °C. In turn, `COc1cc2ncc(C#N)c(Nc3ccc(F)c(Cl)c3)c2cc1NC(=O)C=CCN1CCSC1` returned a melting point of 135 to 138 °C. Then `O=C(CCc1ccc2ccccc2c1)CC(=O)CCc1ccc2ccccc2c1`, with 123 to 125 °C. In turn, `Cc1ccc(=O)n(C2c3cc(C#N)ccc3OC(C)(C)C2O)n1` (configuration not stated) came in with a melting point of over 257 °C. Then `C#CC[C@H](c1nc2cc(Cl)ccc2c(=O)n1Nc1ccccc1)N(CCCN)C(=O)c1cc(F)cc(F)c1`, with 165 to 167 °C. In the case of `COC(=O)C(=Cc1c[nH]c2cc(C)ccc12)[N+](=O)[O-]`, the melting point is 167 to 169 °C. For the molecule `COc1ccc(-c2[nH]nc3c2C(=O)c2c(NC(=O)Cc4ccc5c(c4)OCCO5)cccc2-3)cc1`, the melting point was determined as 297 °C. `O=C1OC2CCC1CC2` displayed a melting point of 125 to 126 °C. In the case of `CCCn1c(COC)nc2c(N)nc3ccc(OCCC4CCCN4C)cc3c21` (configuration not stated), the melting point fell in the range of 155 to 157 °C.

`CCN(CC)c1nc(N)c2cc(OC)c(OC)cc2n1` came in with a melting point of 167 to 169 °C.

With `CC(=O)C(=Cc1cccc([N+](=O)[O-])c1)C(=O)OC(C)C(C)(C)NCCC(c1ccccc1)c1ccccc1` (configuration not stated), the melting point lay within 65 to 80 °C. For `CC(C)c1ccc(S(=O)(=O)n2c(CBr)cc3cc(C(F)(F)F)ccc32)cc1`, the melting point worked out at 100 °C. For the molecule `CC(C)(C)OC(=O)NC1CCCCCC=CC2CC2(C(=O)NS(=O)(=O)C2CC2)NC(=O)C2CC(OC(=O)c3ccc4nccnc4c3)CN2C1=O` (configuration not stated), the melting point was in the range of 158 to 160 °C.

Regarding `CCCN1CC[C@@H]2CC(=O)c3cc(F)ccc3[C@@H]2C1` (relative stereo), the melting point is over 220 °C.

The molecule `Cc1cc(NC(=O)NC2=C(c3ccccc3)c3ccccc3CS2)cc(C)c1O` had a melting point of 227 to 228 °C. `Cc1cc2c(s1)Oc1ccc(Cl)cc1NC2=O` showed a melting point of 250 to 253 °C. Molecule `CCCCCN(C(=O)Cl)c1ccc2c(c1)C(C)(C)CCC2(C)C` registered a melting point of 79 to 81 °C. Take `CCCCc1oc2ccccc2c1C(=O)c1cc(Br)c(OCC(=O)O)c(Br)c1`: the melting point fell in the range of 92 to 94 °C. `CN(C)C(=O)C(C)(C)Sc1nc2ccccc2cc1-c1ccccc1`: the melting point was in the range of 149 to 156 °C. Take `N#Cc1ccc(-c2ccc(F)cc2)nc1Cl`: the melting point amounted to 178 °C.

Consider `CCCCn1nc(C(N)=O)cc1CC`, for which the melting point was in the range of 60 to 61 °C. Consider `COC(=O)c1cn(-c2cc(C(=O)Nc3cc(C(C)(C)C)cc(NS(C)(=O)=O)c3OC)cc(C)c2C)nn1`, for which the melting point stood at 199 °C.

Molecule `CCOC(=O)c1ccc(NC(=O)NCCN2CCN=C2c2ccccn2)cc1` yielded a melting point of 95 to 97 °C.

Molecule `COc1cc(Cc2c(N)nc(N)nc2O)cc(OC)c1OC` came in with a melting point of 275 to 276 °C. Turning to `CSCCC1OC2(CCCCC2)NC1=O` (configuration not stated), the melting point was 109 °C. For `Clc1ncnc2ccccc12`, the melting point was found to be 83 °C. Take `CC1(C)Oc2cc([N+](=O)[O-])ccc2[C@@H](N2Cc3ccccc3C2=O)[C@@H]1O` (relative stereo): the melting point fell in the range of 249 to 250 °C.

`Cc1cc(C)c(C)c(OC(C)(C)C(=O)O)c1` gave a melting point of 91 to 94 °C.

For the molecule `O=C(Nc1cccc(S(=O)(=O)N2CCOCC2)c1)c1cnn2c(C(F)(F)F)cc(-c3ccc(Cl)cc3)nc12`, the melting point came out at 144 °C. With `Cc1nc(-c2cccc(CNc3ccccc3)c2)no1`, the melting point was 75 to 76 °C. Then `COc1ccc([N+](=O)[O-])c(NC(C(=O)O)C(c2ccccc2)c2ccccc2)n1` (configuration not stated), with 172 to 180 °C; and `N#Cc1cn(-c2ccc(C(F)(F)F)cc2)c(=O)[nH]c1=O`, with 230 to 232 °C; and `CC(C(O)C=Cc1ccc(Cl)cc1)n1cncn1` (configuration not stated), with 117 to 118 °C. The molecule `COc1cc(C(C)=O)c(OC)cc1Cl` gave a melting point of 96 °C. `CC1(C)C=C(N2CCCCC2=O)c2cc(C#N)ccc2O1` showed a melting point of 162 to 163 °C. `CS(=O)(=O)c1ccc([C@@H](CC2CCCC2)C(=O)Nc2cnc(C(CO)CO)cn2)cc1Cl`: the melting point was 110 to 120 °C. Then `NC(=O)c1cc(OCCNCc2ccccc2)ccc1O`, with 140 °C; and `Cc1ccccc1-n1cc(-c2ccccc2)c(CBr)n1`, with 67 °C. `Nc1cc2c3c(cccc3c1Cl)C(=O)N(O)C2=O` yielded a melting point of 271 to 275 °C.

`CNC(=O)Cc1ccc2ccn(C3CCN(CCc4ccccc4F)CC3)c2c1`: the melting point was 136 to 137 °C.

The molecule `O=C(O)c1cccc2nc3cc(Br)ccc3nc12` displayed a melting point of 268 to 269 °C. `Cn1nc(O)ccc1=S` yielded a melting point of 203 °C. Regarding `CCOC(=O)c1ccc(NC(=O)Cn2ccnc2)cc1`, the melting point fell in the range of 185 to 187 °C. Turning to `CC(C)n1nc(-c2c(OCc3ccccc3)nc(N)nc2-c2ccccc2)ccc1=O`, the melting point was in the range of 162 to 163 °C.

`COc1ccc(Nc2nc(NC(CO)CO)nc(N(C)C3CCN(C)CC3)n2)cc1Cl` came in with a melting point of 84 °C. The molecule `CCOC(=O)COc1c(C)cc(C)c2c1CCC2=O` returned a melting point of 75 to 77 °C. The molecule `CCOC(=O)c1cn(Cc2ccc(OCc3csc(-c4ccccc4)n3)cc2)nc1-c1cccs1` gave a melting point of 94 to 95 °C.

In the case of `CCc1nn2ccc3c(c2c1CC#N)CCO3`, the melting point is 179 to 180 °C. The molecule `C[C@H]1N[C@H](c2ccc(Br)cc2)[C@@H]2C(=O)N(Cc3ccccc3)C(=O)[C@@H]21` (racemic) registered a melting point of 170 to 172 °C. With `CCOC(=O)c1cnc2nn(C)cc2c1NC(C)CC` (configuration not stated) the figure was 132 to 134 °C; with `O=C(O)c1ccccc1CNC1CCOC1=O` (configuration not stated), 112 to 114 °C; with `CC1(C(=O)C(N)=O)CC1(Cl)Cl` (configuration not stated), 92 to 93 °C. Then `CC1=N/C(=C\c2c[nH]c3ncccc23)C(=O)N1C(C)C`, with 207 °C. As to `N#CC(=CNC1CC1)C(=O)c1cc(F)c(Cl)cc1Cl`, the melting point is 94 to 95 °C. Molecule `C1=C(c2cccs2)CCN(CCCCc2c[nH]c3cc4c(cc23)OCO4)C1` gave a melting point of 86 °C. `CCOC(=O)c1ccc(OCCOC)c(OC)c1` returned a melting point of 57 to 60 °C. In turn, `CC(=O)c1c(N)c(-c2ccccc2)n(C)c1C` returned a melting point of 124 to 126 °C. For the molecule `CC(=O)c1cc2ccccc2cc1C(=O)O`, the melting point was found to be 145 °C. `COc1ccc2c(C(F)(F)F)cc(=O)[nH]c2c1NC(C)=O` gave a melting point of 280 °C.

The melting point is the temperature, or range, at which the solid turns liquid.

(Values after a melting point compilation (Tetko et al.; mined from patent text by program, amines drawn as free bases though some values may be those of a salt).)
